Data reported in ChEMBL document CHEMBL1201862, “PubChem BioAssay data set” (2004).
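Briefly, cells in 96-well plates were exposed to five compound concentrations for 48 h, and endpoints were estimated by linear interpolation. Abbreviation: GI50, concentration required for 50% inhibition of growth.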 Activity calls are given as the source filed them. Cut-off read from the data, not from the text of the source: active = GI50 up to about 1.1 µM and inactive = higher.

Legend:
Experiment in all cases: NCI anticancer screen, dose series, 48 h
BT-549 = system: BT-549
K562 = system: K562
T47D = system: T47D
MDA-MB-231 = system: MDA-MB-231
OVCAR-5 = system: OVCAR-5
NCI-H23 = system: NCI-H23
M14 = system: M14
SK-MEL-28 = system: SK-MEL-28
HCC 2998 = system: HCC 2998
A549 = system: A549
SR = system: SR
NCI-H226 = system: NCI-H226
SNB-75 = system: SNB-75
SW-620 = system: SW-620
HCT-116 = system: HCT-116
Hs-578T = system: Hs-578T
HT-29 = system: HT-29
MCF7 = system: MCF7
COLO 205 = system: COLO 205
NCI-H460 = system: NCI-H460
UO-31 = system: UO-31
NCI/ADR-RES = system: NCI/ADR-RES
RXF 393 = system: RXF 393
UACC-62 = system: UACC-62
HOP-92 = system: HOP-92
Malme-3M = system: Malme-3M
SN12C = system: SN12C
SF-295 = system: SF-295
UACC-257 = system: UACC-257
SK-OV-3 = system: SK-OV-3
DU-145 = system: DU-145
SK-MEL-5 = system: SK-MEL-5
CCRF-CEM = system: CCRF-CEM
EKVX = system: EKVX
LOX IMVI = system: LOX IMVI
PC-3 = system: PC-3
786-0 = system: 786-0
NCI-H522 = system: NCI-H522
SK-MEL-2 = system: SK-MEL-2
TK-10 = system: TK-10
SF-268 = system: SF-268
HOP-62 = system: HOP-62
MDA-N = system: MDA-N
HL-60 = system: HL-60
MOLT-4 = system: MOLT-4
SNB-19 = system: SNB-19
HCT-15 = system: HCT-15
A498 = system: A498
IGROV-1 = system: IGROV-1
U-251 = system: U-251
RPMI-8226 = system: RPMI-8226
ACHN = system: ACHN
OVCAR-8 = system: OVCAR-8
KM12 = system: KM12
SF-539 = system: SF-539
OVCAR-3 = system: OVCAR-3
MDA-MB-435 = system: MDA-MB-435
CAKI-1 = system: CAKI-1
OVCAR-4 = system: OVCAR-4

Measured: GI50

CNC(=O)N1CCN(C(=O)NC)CCN(C(=O)NC)CC1
inactive: BT-549 > 100 µM | K562 > 100 µM | T47D > 100 µM | MDA-MB-231 > 100 µM | OVCAR-5 > 100 µM | NCI-H23 > 100 µM | M14 > 100 µM | SK-MEL-28 > 100 µM | HCC 2998 > 100 µM | A549 > 100 µM | SR > 100 µM | NCI-H226 > 100 µM | SNB-75 > 100 µM | SW-620 > 100 µM | HCT-116 > 100 µM | Hs-578T > 100 µM | HT-29 > 100 µM | MCF7 > 100 µM | COLO 205 > 100 µM | NCI-H460 > 100 µM | UO-31 > 100 µM | NCI/ADR-RES > 100 µM | RXF 393 > 100 µM | UACC-62 > 100 µM | HOP-92 > 100 µM | Malme-3M > 100 µM | SN12C > 100 µM | SF-295 > 100 µM | UACC-257 > 100 µM | SK-OV-3 > 100 µM | DU-145 > 100 µM | SK-MEL-5 > 100 µM | CCRF-CEM > 100 µM | EKVX > 100 µM | LOX IMVI > 100 µM | PC-3 > 100 µM | 786-0 > 100 µM | NCI-H522 > 100 µM | SK-MEL-2 > 100 µM | TK-10 > 100 µM | SF-268 > 100 µM | HOP-62 > 100 µM | MDA-N > 100 µM | HL-60 > 100 µM | MOLT-4 > 100 µM | SNB-19 > 100 µM | A498 > 100 µM | IGROV-1 > 100 µM | U-251 > 100 µM | RPMI-8226 > 100 µM | ACHN > 100 µM | OVCAR-8 > 100 µM
> 100 µM: HCT-15

Cc1oc2c(c1C)S(=O)(=O)C(C#N)=C(N(C)C)N2
> 100 µM: HCT-15
inactive: BT-549 > 100 µM | K562 > 100 µM | T47D > 100 µM | KM12 > 100 µM | SF-539 > 100 µM | MDA-MB-231 > 100 µM | OVCAR-5 > 100 µM | OVCAR-3 > 100 µM | NCI-H23 > 100 µM | M14 > 100 µM | SK-MEL-28 > 100 µM | HCC 2998 > 100 µM | A549 > 100 µM | NCI-H226 > 100 µM | SNB-75 > 100 µM | SW-620 > 100 µM | HCT-116 > 100 µM | Hs-578T > 100 µM | HT-29 > 100 µM | MCF7 > 100 µM | NCI-H460 > 100 µM | UO-31 > 100 µM | NCI/ADR-RES > 100 µM | MDA-MB-435 > 100 µM | UACC-62 > 100 µM | HOP-92 > 100 µM | Malme-3M > 100 µM | SN12C > 100 µM | SF-295 > 100 µM | UACC-257 > 100 µM | SK-OV-3 > 100 µM | DU-145 > 100 µM | SK-MEL-5 > 100 µM | EKVX > 100 µM | LOX IMVI > 100 µM | PC-3 > 100 µM | 786-0 > 100 µM | CAKI-1 > 100 µM | NCI-H522 > 100 µM | SK-MEL-2 > 100 µM | TK-10 > 100 µM | SF-268 > 100 µM | HOP-62 > 100 µM | MDA-N > 100 µM | MOLT-4 > 100 µM | OVCAR-4 > 100 µM | SNB-19 > 100 µM | A498 > 100 µM | IGROV-1 > 100 µM | U-251 > 100 µM | RPMI-8226 > 100 µM | ACHN > 100 µM | OVCAR-8 > 100 µM
